Assay results reported in patent US20230071763A1, “AURISTATIN-RELATED COMPOUNDS, CONJUGATED AURISTATIN-RELATED COMPOUNDS, AND METHODS OF USE THEREOF” (CYTOMX THERAPEUTICS, INC., priority 2020, published 2023).
pKd: −log10 of the molar value.

What was measured:
human CES-1C = target: T1, human CES-1C (Homo sapiens, UniProt P23141); assay: Stability to carboxylesterase, human CES-1C; assay type: in vitro ADME; conditions: 37° C., in 48 hrs
T1 sequence (P23141 18-566 isoform P23141-3 limits assumed): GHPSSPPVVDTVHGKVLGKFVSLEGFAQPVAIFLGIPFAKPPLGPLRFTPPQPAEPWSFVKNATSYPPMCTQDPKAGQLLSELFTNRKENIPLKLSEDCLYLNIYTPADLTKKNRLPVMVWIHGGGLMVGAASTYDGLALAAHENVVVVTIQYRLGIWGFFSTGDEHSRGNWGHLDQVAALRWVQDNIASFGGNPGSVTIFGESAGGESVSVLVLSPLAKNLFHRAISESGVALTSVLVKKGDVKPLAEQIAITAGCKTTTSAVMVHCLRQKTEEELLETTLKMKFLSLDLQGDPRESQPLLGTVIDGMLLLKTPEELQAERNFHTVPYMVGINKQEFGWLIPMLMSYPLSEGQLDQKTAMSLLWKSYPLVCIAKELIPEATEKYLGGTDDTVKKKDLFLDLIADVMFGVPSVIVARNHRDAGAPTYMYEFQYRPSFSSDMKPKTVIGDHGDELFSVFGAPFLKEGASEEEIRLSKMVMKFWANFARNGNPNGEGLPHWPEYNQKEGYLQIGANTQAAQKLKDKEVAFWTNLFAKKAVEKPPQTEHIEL
Protocol: (§1) In a further exemplary study, the stability of the substrates were determined in the presence of […] different carboxylesterases (human or mouse CES-1 and CES-1C). In this study, the enzymes were activated prior to substrate introduction and then incubated with the substrate at 37° C. over a 48 h time period.

mouse CES-1C = target: T2, mouse CES-1C (Mus musculus, UniProt P23953); assay: Stability to carboxylesterase, mouse CES-1C; assay type: in vitro ADME; conditions: 37° C., in 48 hrs
T2 sequence (P23953 19-554): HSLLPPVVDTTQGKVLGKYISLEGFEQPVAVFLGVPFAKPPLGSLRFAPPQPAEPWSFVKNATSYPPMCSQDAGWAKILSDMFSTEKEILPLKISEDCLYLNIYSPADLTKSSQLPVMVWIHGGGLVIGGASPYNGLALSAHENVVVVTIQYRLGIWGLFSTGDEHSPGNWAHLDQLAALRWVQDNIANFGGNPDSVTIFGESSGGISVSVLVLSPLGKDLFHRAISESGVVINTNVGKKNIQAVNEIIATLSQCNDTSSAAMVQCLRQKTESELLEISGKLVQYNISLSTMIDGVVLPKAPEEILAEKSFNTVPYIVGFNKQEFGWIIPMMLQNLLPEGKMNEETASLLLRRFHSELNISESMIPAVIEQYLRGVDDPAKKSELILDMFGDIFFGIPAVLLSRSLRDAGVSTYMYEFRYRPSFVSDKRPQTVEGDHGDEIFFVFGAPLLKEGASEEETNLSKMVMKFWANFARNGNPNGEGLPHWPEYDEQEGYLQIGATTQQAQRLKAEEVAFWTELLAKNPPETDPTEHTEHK
Protocol: as §1

SW780 cells = assay: In vitro cytotoxicity (Presto Blue), SW780; assay type: cell-based; conditions: 5 days treatment, percent survival
Protocol: (§2) In this assay, the test cells were plated and grown to an appropriate cell density (e.g., 1500 cells/well (50 μL per well) for SW780 cells). The cells were treated with the drug (MMATH or MMAE (monomethylauristatin E)) at concentrations ranging from 10 μM to 10^−4 nM in triplicate for 5 days. On the day 6 endpoint, the cells were incubated with 20 μL of Presto Blue @ 37 C for 2 hr and the signal was read on a Biotek synergy H4 plate reader. After media background was subtracted, the percent survival was calculated and plotted to determine the EC50, as shown in the exemplary results of Table 1.

SKOV3 = assay: In vitro cytotoxicity (Presto Blue), SKOV3; assay type: cell-based; conditions: 5 days treatment, percent survival
Protocol: as §2

HCC1954 = assay: In vitro cytotoxicity (Presto Blue), HCC1954; assay type: cell-based; conditions: 5 days treatment, percent survival
Protocol: as §2

PC3 = assay: In vitro cytotoxicity (Presto Blue), PC3; assay type: cell-based; conditions: 5 days treatment, percent survival
Protocol: as §2

tubulin = assay: Binding to tubulin

Structure (SMILES)	cleavage by human CES-1C (human CES-1C)	cleavage by mouse CES-1C (mouse CES-1C)	EC50 (SW780 cells; Homo sapiens, SW780, 120 h, first SW780 column)	EC50 (SW780 cells; Homo sapiens, SW780, 120 h, second SW780 column)	EC50 (SKOV3; Homo sapiens, SK-OV-3, 120 h)	EC50 (HCC1954; Homo sapiens, HCC1954, 120 h)	EC50 (PC3; Homo sapiens, PC-3, 120 h)	pKd (tubulin)	EC50 (SW780 cells; first SW780 column)	EC50 (SW780 cells; second SW780 column)	EC50 (SKOV3)	EC50 (HCC1954)	EC50 (PC3)
CC[C@H](C)C([C@@H](CC(=O)N1CCC[C@H]1[C@H](OC)[C@@H](C)C(=O)N[C@H](C)[C@@H](O)c1ccccc1)OC)N(C)C(=O)[C@@H](NC(=O)[C@@H](NC)C(C)C)C(C)C (some centres unmarked) [Cys-vc-MMAE]	completely cleaved	completely cleaved	–	–	–	–	–	–	–	–	–	–	–
CCC(C)C(C(CC(=O)N1CCCC1C(OC)C(C)C(=O)NC(CO)Cc1cccs1)OC)N(C)C(=O)C(NC(=O)C(NC)C(C)C)C(C)C (centres unmarked) [MMATH]	–	–	0.38 nM	0.26 nM	0.2 nM	0.03 nM	0.24 nM	6.69	–	–	–	–	–
CC[C@H](C)[C@@H]([C@@H](CC(=O)N1CCC[C@H]1[C@H](OC)[C@@H](C)C(=O)N[C@H](C)[C@@H](O)c1ccccc1)OC)N(C)C(=O)[C@@H](NC(=O)[C@@H](NC)C(C)C)C(C)C [MMAE, monomethylauristatin E]	–	–	–	–	–	–	–	7.16	0.31 nM	0.22 nM	0.19 nM	0.03 nM	0.24 nM
